Measured values from patent publication US20040171553A1, “Peptides fragments of colostrinin and their use” (priority 2000, published 2004).
“And” between values parts separate entries of the source, which are not always exact repeats. Equal values may be shown once.

Assays:
[1] = tested on: rabbits; assay: Serum antibody titre by ELISA after immunisation of rabbits with the KHL-conjugated synthetic peptide; type: in vivo, rabbit; conditions: ELISA against corresponding synthetic peptide antigen; for Titre: (Serum Dilution) Post Immunization R1: rabbit R1, after the 10 week immunisation protocol; for Titre: (Serum Dilution) Pre Immunization R1: rabbit R1, before immunisation
Protocol: To each N-terminal end of the synthetic peptides, L-cysteine was attached, and the peptide was formed into a ring so that the cysteine group lay between the N-terminal and the C-terminal ends of the synthetic peptide. This facilitated peptide conjugation with Keyhole Hemolymph (KHL).
For immunisation, two young adult rabbits (5-6 months old, weighing 5-6 lbs [2.3-2.7 kg]) were used. Each antigen (i.e., each synthetic peptide) was given subcutaneously and intramuscularly in 0.1 ml injections at ten different sites. The protocol used followed the following sequence:
The level of antibodies in the serum was established by ELISA (enzyme-linked immunosorbent assay) with the corresponding synthetic peptide antigen. This technique involved the following steps:
1. The antigen was diluted with a 0.1 M bicarbonate buffer (pH 9.0) to yield a 10 μg of antigen/ml solution. A volume of 50 μl of this solution was placed into each microwell of a 96 well plate.
2. The plates were covered and incubated at 37° C. for 3 hours.
3. The wells were washed with a coupling buffer and blocked using 200 μl of Pierce standard solution of BSA (bovine serum albumin).
4. 50 μl of dilutent BSA (0.75% soln.) was pipetted into each well. 50 μl of antibody serum sample diluted 1:100 in dilutent BSA were placed in lane A of each row.
5. 1:2 serial dilutions were performed moving down the plate.
6. The plates were covered and incubated at room temperature for 60 minutes.
7. The plates were washed four times with PBS wash solution.
8. A volume of 50 μl of goat anti-rabbit IgG (H&L) HRP conjugate at 1:1000 dilution in BSA was pipetted into each well and incubated at room temperature for 60 minutes (H&L=heavy and light chain; HRP=horseradish peroxidase).
9. The plates were washed four times with PBS wash solution.
10. A volume of 50 μl of substrate solution 2,2′-azino-bis(3-ethylbenzothiazoline-6-sulfonic acid)-diammonium salt (ABTS available from Pierce, which is used to help visualise the extent of the antibody/antigen reaction) was pipetted into each well and incubated at room temperature for about 2 minutes.
11. The reaction was stopped by adding 50 μl of 1% SDS (sodium dodecyl sulfate) into each well.
12. The wells were then read on a dynoplate reader at 405.
The data presented in Table 3 show the serum antibody titers against specific antibodies after the 10 week immunisation protocol.

[2] = tested on: beta-amyloid precursor protein; assay: Ischemia-induced beta-amyloid precursor protein accumulation in rats, immunostaining with monoclonal antibodies; type: in vivo; design: Jonas C-terminal APP / Beringer- terminal APP / 511-608 APP ALZ 90 / Total: scale not given here; conditions: ischemic rats; for Total: sum of the three APP immunostaining levels; for Jonas C-terminal APP: C-terminal end of precursor protein; for β-amyloid plaque level, overall result in words: summary of Table 4
Description: Ischemia was induced in rats in order to encourage the development of the beta-amyloid precursor proteins. The rats were then subjected to a variety of treatment regimes, and the degree of the beta-amyloid precursor protein presence was investigated. The general technique is described in “Complete cerebral ischemia with short-term survival in rats induced by cardiac arrest. I. Extracellular accumulation of Alzheimer's β-amyloid protein precursor in the brain.”, Pluta, R. et al, Brain Research 649 (1994) 323-328.
The treatment regime varied in terms of the length of time ischemia was induced, and the length of time treatment was applied.
The Colostrinin was obtained by conventional techniques, as described, for example, in WO98/14473. The peptides were produced using the method described in Example 1. The control was not subjected to any treatment.
Each column represents the results if the immunostaining with specific monoclonal antibodies directed against fragments of amyloid or its N and C precursor protein.

[3] = β-amyloid plaque level, immunostaining

Question: What does the source list for PVVVPPFLQ [Peptide 9]?
Answer: Titre: (Serum Dilution) Post Immunization R1 [1]: 25600; Titre: (Serum Dilution) Pre Immunization R1 [1]: 0; Total [2]: 8 and 5 and 6; Jonas C-terminal APP [2, 3]: 3 and 2

Question: Which results are given for QPLLQVMMEPQ [Peptide 1]?
Answer: Titre: (Serum Dilution) Post Immunization R1 [1]: 12800; Titre: (Serum Dilution) Pre Immunization R1 [1]: 0; β-amyloid plaque level, overall result in words [2]: particularly good results; Jonas C-terminal APP [2, 3]: 1 and 2

Question: Which “Titre: (Serum Dilution) Post Immunization R1” value [1] does the source give for LPLPLVRS [Peptide 10] here?
Answer: The value was 25600.

Question: And the “Titre: (Serum Dilution) Pre Immunization R1” value [1]?
Answer: The value was 0.

Question: How did the “Titre: (Serum Dilution) Post Immunization R1” value [1] turn out when FLPVVN [Peptide 2] was run?
Answer: The value was 12800.

Question: And the “Titre: (Serum Dilution) Pre Immunization R1” value [1]?
Answer: Its value is 0.

Question: Which “Titre: (Serum Dilution) Post Immunization R1” value [1] does the source give for LLYQEPV [Peptide 6] here?
Answer: Its value is 25600.

Question: And the “Titre: (Serum Dilution) Pre Immunization R1” value [1]?
Answer: Its value is 0.

Question: How did the “Titre: (Serum Dilution) Post Immunization R1” value [1] turn out when QPKVLPVPQ [Peptide 7] was run?
Answer: The value was 25600.

Question: And the “Titre: (Serum Dilution) Pre Immunization R1” value [1]?
Answer: The value was 0.

Question: What about the Total [2] of the same substance?
Answer: The Total was 11 and 10 and 9.

Question: And the “511-608 APP ALZ 90” value ([2]; β-amyloid plaque level, 511-608 position of precursor protein, immunostaining)?
Answer: The value was 4 and 5.

Question: And the “Jonas C-terminal APP” value [2, 3]?
Answer: Its value is 3.

Question: How did the “Titre: (Serum Dilution) Post Immunization R1” value [1] turn out when PLPPTVMFPPQ [Peptide 8] was run?
Answer: The value was 25600.

Question: What about the “Titre: (Serum Dilution) Pre Immunization R1” value [1] of the same substance?
Answer: The value was 0.

Question: What does the source list for ESYVPLFP [Peptide 5]?
Answer: Titre: (Serum Dilution) Post Immunization R1 [1]: 25600; Titre: (Serum Dilution) Pre Immunization R1 [1]: 0; β-amyloid plaque level, overall result in words [2]: particularly good results; Beringer- terminal APP ([2]; β-amyloid plaque level, N-terminal end of precursor protein, immunostaining): 2 and 4

Question: Which “Titre: (Serum Dilution) Post Immunization R1” value [1] does the source give for PVLPVEPFPF [Peptide 3] here?
Answer: Its value is 12800.

Question: And the “Titre: (Serum Dilution) Pre Immunization R1” value [1]?
Answer: Its value is 0.

Question: And the “β-amyloid plaque level, overall result in words” value [2]?
Answer: Its value is “particularly good results”.

Question: And the “Jonas C-terminal APP” value [2, 3]?
Answer: Its value is 1 and 2.

Question: Which “Titre: (Serum Dilution) Post Immunization R1” value [1] does the source give for PKLKVEVPEP [Peptide 4] here?
Answer: The value was 25600.

Question: And the “Titre: (Serum Dilution) Pre Immunization R1” value [1]?
Answer: The value was 0.
